Values joined by “and” are separate entries in the source; they are usually repeats but may differ in a detail not shown here. Equal entries are not always repeated.
Key:
SNAP-mGluR4/4 homodimer = molecular target: T1, SNAP-mGluR4/4 homodimer (Rattus norvegicus, UniProt P31423); assay: Live-cell ensemble FRET of SNAP-mGluR4/4 homodimer in HEK293 cells; type: cell-based
T1 construct: HA (N); expressed in transfected cells; host or cells: HEK293 / HEK293T
Description: (§1) After labeling, cells were mounted on an upright, scanning confocal microscope (Zeiss LSM 780) and imaged with a 20X objective. […] Clusters of cells were analyzed together and FRET was calculated as FRET = (IA)/(ID + IA), in which ID is the fluorescence donor intensity and IA is the fluorescence acceptor intensity. […] Fitting of dose–response curves was performed using Prism (Graphpad). […] Drugs were delivered with a gravity-driven perfusion system.

[1] = molecular target: SNAP-mGluR7/SNAP-mGluR7 homodimer (mGluR7/7) (Rattus norvegicus, UniProt P35400); assay: Live-cell ensemble FRET of SNAP-mGluR7/7 homodimer in HEK293T cells; type: cell-based; parameters: HA (N); made in house; host or cells: HEK293T
Description: as §1

mGluR7(K319C) = molecular target: T2, mGluR7(K319C) (Rattus norvegicus, UniProt P35400, K319C); type: cell-based; settings: vs wild-type mGluR7
T2 construct: expressed in transfected cells; host or cells: HEK293 / HEK293T
Excerpt: (§2) Illumination was applied to the entire field of view using either a Polychrome V monochromator (TILL Photonics) through a 20× objective, or a Lambda DG4 high-speed wavelength switcher (Sutter Instruments) with 380 nm and 500 nm filters through a 40× objective. pClamp software was used for both data acquisition and control of illumination.

SNAP-mGluR2(F756D) = molecular target: T3, SNAP-mGluR2(F756D) (Rattus norvegicus, UniProt P31421, F756D); assay: Whole-cell patch clamp of GIRK1 current, SNAP-mGluR2(F756D) expressed alone; type: cell-based; settings: SNAP-mGluR2-F756D alone; 1 mM Glu; single cells
T3 construct: HA (N); expressed in transfected cells; host or cells: HEK293 / HEK293T
Excerpt: We explored this further by examining trans-activation, whereby binding of ligand to one subunit activates G-protein interaction in the partner subunit[46],[47]. To specifically activate only the mGluR2 subunit of the mGluR2/7 heterodimer, we selectively attached a photoswitched tethered ligand to mGluR2.
as §2

[2] = molecular target: T4, CLIP-mGluR2/SNAP-mGluR2(YADA) dimer (Rattus norvegicus, UniProt P31421, D295A/Y216A); assay: smFRET on CLIP-mGluR2/SNAP-mGluR2(YADA) dimers; type: biochemical; settings: for mGluR2/2(YADA) Histogram area: Figure 4c
T4 construct: Flag (N); HA (N); made in house; host or cells: HEK293T
Excerpt: To examine this, we tested the behavior of a heterodimer that co-assembles a wild-type mGluR2 with a binding site mutant version of mGluR2, mGluR2 (Y216A and D295A; known as the YADA mutant). […] We co-expressed CLIP-mGluR2 and SNAP-mGluR2(YADA) and labeled with the SNAP-selective acceptor dye BG-Alexa-647 and the CLIP-selective donor dye BC-DY-547. […] These findings indicate that closure of a single wild-type mGluR2 subunit is much more efficient in activating the receptor when partnered in the dimer with an mGluR7 than with another mGluR2.
(§3) (100 ms time resolution).

mGluR5/mGluR5(YADA) = settings: cited from earlier work
[3] = molecular target: T5, CLIP-mGluR3/SNAP-mGluR7 heterodimer (mGluR3/7) (Rattus norvegicus, UniProt P31422+P35400); assay: smFRET on CLIP-mGluR3/SNAP-mGluR7 heterodimers; type: biochemical; settings: for smFRET histogram value: 10uM Glu
T5 construct: Flag (N); HA (N); made in house; host or cells: HEK293T
Description: Samples were prepared in the same manner as for mGluR2/7 heterodimers and imaged in smFRET.
as §3

[4] = molecular target: T6, SNAP-mGluR7(N74K) homodimer (Rattus norvegicus, UniProt P35400, N74K); assay: smFRET on SNAP-mGluR7(N74K) homodimers; type: biochemical; settings: 10 mM glutamate; wild-type at >10X higher glutamate
T6 construct: HA (N); made in house; host or cells: HEK293T
Excerpt: as §3

T4 sequence (P31421 19-872, stated change not applied): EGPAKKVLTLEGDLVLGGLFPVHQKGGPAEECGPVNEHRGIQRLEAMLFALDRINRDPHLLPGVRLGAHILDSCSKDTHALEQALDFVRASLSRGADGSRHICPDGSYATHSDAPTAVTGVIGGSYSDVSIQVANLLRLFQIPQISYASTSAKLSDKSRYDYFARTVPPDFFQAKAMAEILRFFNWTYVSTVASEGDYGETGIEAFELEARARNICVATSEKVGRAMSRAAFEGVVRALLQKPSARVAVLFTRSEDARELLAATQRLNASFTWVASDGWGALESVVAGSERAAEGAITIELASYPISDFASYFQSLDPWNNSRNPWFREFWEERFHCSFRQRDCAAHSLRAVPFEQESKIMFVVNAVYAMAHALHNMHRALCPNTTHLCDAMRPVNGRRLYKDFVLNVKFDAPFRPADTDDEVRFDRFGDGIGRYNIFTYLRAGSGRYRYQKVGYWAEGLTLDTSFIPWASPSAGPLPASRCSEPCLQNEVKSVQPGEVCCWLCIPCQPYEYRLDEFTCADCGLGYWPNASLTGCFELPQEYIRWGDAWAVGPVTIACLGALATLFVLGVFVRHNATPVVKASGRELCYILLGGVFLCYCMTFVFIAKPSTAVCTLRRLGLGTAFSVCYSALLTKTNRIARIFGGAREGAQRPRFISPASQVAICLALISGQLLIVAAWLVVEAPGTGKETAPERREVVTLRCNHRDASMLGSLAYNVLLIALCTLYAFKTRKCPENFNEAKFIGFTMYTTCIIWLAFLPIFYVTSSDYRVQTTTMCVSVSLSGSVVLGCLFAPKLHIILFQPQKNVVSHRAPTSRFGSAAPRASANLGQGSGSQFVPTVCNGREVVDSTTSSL
T4 sequence (P31421 19-872 Y216A/D295A): as the sequence (P31421 19-872, stated change not applied) above, with Y198A, D277A counted along it
Sequence of SNAP-mGluR7/SNAP-mGluR7 homodimer (mGluR7/7) (P35400 35-915): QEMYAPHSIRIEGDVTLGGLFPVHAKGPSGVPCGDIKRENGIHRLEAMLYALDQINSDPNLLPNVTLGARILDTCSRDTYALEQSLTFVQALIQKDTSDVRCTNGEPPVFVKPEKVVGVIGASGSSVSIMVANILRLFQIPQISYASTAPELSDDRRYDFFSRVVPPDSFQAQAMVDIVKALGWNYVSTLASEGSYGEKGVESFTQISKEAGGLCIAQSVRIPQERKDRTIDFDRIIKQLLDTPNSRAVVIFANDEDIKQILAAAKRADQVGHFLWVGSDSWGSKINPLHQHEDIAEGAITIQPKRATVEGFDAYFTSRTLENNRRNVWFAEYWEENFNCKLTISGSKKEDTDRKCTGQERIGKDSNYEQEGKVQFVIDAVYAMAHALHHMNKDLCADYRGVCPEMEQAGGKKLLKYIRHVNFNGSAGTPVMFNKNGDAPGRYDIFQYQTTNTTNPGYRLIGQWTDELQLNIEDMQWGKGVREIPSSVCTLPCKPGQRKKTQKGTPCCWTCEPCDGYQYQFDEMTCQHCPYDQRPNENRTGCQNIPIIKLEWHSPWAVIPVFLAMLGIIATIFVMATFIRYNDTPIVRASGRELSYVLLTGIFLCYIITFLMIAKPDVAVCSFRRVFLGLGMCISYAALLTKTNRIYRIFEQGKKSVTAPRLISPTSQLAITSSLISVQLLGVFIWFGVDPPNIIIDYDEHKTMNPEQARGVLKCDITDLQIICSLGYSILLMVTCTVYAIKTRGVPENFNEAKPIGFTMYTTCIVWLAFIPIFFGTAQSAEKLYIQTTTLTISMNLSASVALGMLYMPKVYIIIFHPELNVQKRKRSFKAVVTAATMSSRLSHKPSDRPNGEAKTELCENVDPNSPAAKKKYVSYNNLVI
T5 sequence (P31422 23-879): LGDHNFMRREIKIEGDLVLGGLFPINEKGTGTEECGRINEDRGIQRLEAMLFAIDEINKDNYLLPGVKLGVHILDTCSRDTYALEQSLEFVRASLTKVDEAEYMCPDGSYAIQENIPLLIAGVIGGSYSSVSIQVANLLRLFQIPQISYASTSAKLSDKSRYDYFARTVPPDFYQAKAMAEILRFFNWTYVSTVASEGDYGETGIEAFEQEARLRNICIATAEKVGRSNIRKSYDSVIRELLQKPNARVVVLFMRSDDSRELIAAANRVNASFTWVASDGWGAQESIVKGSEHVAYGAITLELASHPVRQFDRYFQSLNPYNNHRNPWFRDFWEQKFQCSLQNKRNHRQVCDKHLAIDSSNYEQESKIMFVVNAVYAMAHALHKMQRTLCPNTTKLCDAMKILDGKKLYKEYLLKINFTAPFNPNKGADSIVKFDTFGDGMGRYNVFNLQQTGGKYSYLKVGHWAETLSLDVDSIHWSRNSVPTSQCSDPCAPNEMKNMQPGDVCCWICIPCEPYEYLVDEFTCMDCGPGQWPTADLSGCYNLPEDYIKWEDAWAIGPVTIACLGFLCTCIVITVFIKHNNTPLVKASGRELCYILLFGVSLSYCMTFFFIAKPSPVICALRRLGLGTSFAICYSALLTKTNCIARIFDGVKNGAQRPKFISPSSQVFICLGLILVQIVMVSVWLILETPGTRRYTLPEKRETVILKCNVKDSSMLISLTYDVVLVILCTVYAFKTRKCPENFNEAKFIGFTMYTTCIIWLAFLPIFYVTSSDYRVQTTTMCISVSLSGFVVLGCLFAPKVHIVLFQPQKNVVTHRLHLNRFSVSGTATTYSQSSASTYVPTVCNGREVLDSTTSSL
T5 sequence (P35400 35-915): as the sequence (P35400 35-915) above
T1 sequence (P31423 33-912): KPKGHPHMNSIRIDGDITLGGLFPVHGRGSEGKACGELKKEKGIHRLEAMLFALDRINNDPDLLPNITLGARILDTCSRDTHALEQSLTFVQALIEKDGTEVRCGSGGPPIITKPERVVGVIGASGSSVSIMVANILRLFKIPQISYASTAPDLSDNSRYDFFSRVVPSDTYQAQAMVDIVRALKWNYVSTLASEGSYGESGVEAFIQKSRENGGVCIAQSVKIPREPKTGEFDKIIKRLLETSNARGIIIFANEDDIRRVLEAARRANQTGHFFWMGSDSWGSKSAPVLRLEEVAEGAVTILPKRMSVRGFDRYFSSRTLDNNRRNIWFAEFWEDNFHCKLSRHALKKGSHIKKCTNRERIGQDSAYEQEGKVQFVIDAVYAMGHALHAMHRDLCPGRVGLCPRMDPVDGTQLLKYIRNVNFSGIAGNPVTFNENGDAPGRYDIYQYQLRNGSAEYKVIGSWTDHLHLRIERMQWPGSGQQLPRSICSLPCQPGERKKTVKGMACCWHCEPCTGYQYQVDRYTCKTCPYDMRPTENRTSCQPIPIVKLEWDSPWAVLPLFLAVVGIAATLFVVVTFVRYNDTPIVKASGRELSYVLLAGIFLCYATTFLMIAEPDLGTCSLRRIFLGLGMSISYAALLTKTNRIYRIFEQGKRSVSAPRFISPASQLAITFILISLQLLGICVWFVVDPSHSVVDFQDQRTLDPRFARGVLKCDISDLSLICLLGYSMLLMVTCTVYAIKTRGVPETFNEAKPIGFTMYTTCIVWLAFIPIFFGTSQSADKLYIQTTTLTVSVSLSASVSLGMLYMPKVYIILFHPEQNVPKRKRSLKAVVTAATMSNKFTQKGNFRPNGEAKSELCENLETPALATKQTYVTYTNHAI
T2 sequence (P35400 35-915 K319C): as the sequence (P35400 35-915) above, with K285C counted along it
T3 sequence (P31421 19-872 F756D): as the sequence (P31421 19-872, stated change not applied) above, with F738D counted along it
T6 sequence (P35400 35-915 N74K): as the sequence (P35400 35-915) above, with N40K counted along it

What does the source list for `N[C@@H](CCC(=O)O)C(=O)O` [glutamate]?
titration values, single replicates 1-3 (SNAP-mGluR4/4 homodimer; Glu 1e-8, individual replicates): 0; titration values, AVG (normalized response) (SNAP-mGluR4/4 homodimer; Glu 1e-7): 0.0203; titration values, single replicates 1-3 (SNAP-mGluR4/4 homodimer; Glu 1e-7, individual replicates, listed as Glu): 0.03656 and 0.01694 and 0.007398; titration values, AVG (normalized response) (SNAP-mGluR4/4 homodimer; Glu 1e-6): 0.0444; titration values, single replicates 1-3 (SNAP-mGluR4/4 homodimer; Glu 1e-6, individual replicates, listed as Glu): 0.05482 and 0.03845 and 0.03991; titration values, AVG (normalized response) (SNAP-mGluR4/4 homodimer; Glu 1e-5): 0.4393; titration values, single replicates 1-3 (SNAP-mGluR4/4 homodimer; Glu 1e-5, individual replicates, listed as Glu): 0.4343 and 0.4025 and 0.481; titration values, AVG (normalized response) (SNAP-mGluR4/4 homodimer; Glu 0.0001): 0.8959; titration values, single replicates 1-3 (SNAP-mGluR4/4 homodimer; Glu 0.0001, individual replicates, listed as Glu): 0.9016 and 0.8805 and 0.9055; titration values, AVG (normalized response) (SNAP-mGluR4/4 homodimer; Glu 0.001 (normalisation point)): 1; titration values, single replicates 1-3 (SNAP-mGluR4/4 homodimer; Glu 0.001 (normalisation point), individual replicates): 1; FRET decrease ([1]; 10 mM glutamate, live HEK293T cells): barely measurable FRET decrease; fractional change in FRET (Figure 1c), Average ([1]; 10 mM glutamate, live cells): 0.002; glutamate concentration required for a measurable response ([1]; live-cell ensemble FRET): 10 mM; FRET change ([1]; up to 1 mM glutamate, live HEK293T cells): no detectable FRET change; effect of K319C mutation on apparent affinity for glutamate (GIRK current) (mGluR7(K319C)): did not alter the apparent affinity; Current, 1 mM Glu (SNAP-mGluR2(F756D)): 0; mGluR2/2(YADA) Histogram area ([2]; Glu 1e-6): 0.0005; mGluR2/2(YADA) Histogram area ([2]; Glu 3e-6): 0.0013; mGluR2/2(YADA) Histogram area ([2]; Glu 1e-5): 0.00167; mGluR2/2(YADA) Histogram area ([2]; Glu 3e-5): 0.00171; mGluR2/2(YADA) Histogram area ([2]; Glu 0.0001): 0.00339; mGluR2/2(YADA) Histogram area ([2]; Glu 0.0003): 0.00443; mGluR2/2(YADA) Histogram area ([2]; Glu 0.001): 0.00578; mGluR2/2(YADA) Histogram area ([2]; Glu 0.01): 0.00605; mGluR2/2(YADA) Histogram area ([2]; Glu 0.1): 0.00616; maximal occupancy of the low FRET activated conformation ([2]; high glutamate): ~ 30%; first low glutamate concentration component, share of maximal activation (mGluR5/mGluR5(YADA)): ~ 20%; smFRET histogram value ([3]; FRET bin 0): 5.12E-04; smFRET histogram value ([3]; FRET bin 0.02): 0.00118; smFRET histogram value ([3]; FRET bin 0.04): 0.00527; smFRET histogram value ([3]; FRET bin 0.06): 0.01241; smFRET histogram value ([3]; FRET bin 0.08): 0.03308; smFRET histogram value ([3]; FRET bin 0.1): 0.05942; smFRET histogram value ([3]; FRET bin 0.12): 0.08729; smFRET histogram value ([3]; FRET bin 0.14): 0.111; smFRET histogram value ([3]; FRET bin 0.16): 0.1262; smFRET histogram value ([3]; FRET bin 0.18): 0.1233; smFRET histogram value ([3]; FRET bin 0.2): 0.1027; smFRET histogram value ([3]; FRET bin 0.22): 0.08729; smFRET histogram value ([3]; FRET bin 0.24): 0.06369; smFRET histogram value ([3]; FRET bin 0.26): 0.04632; smFRET histogram value ([3]; FRET bin 0.28): 0.03089; smFRET histogram value ([3]; FRET bin 0.3): 0.01963; smFRET histogram value ([3]; FRET bin 0.32): 0.01469; smFRET histogram value ([3]; FRET bin 0.34): 0.01371; smFRET histogram value ([3]; FRET bin 0.36): 0.01107; smFRET histogram value ([3]; FRET bin 0.38): 0.01037; smFRET histogram value ([3]; FRET bin 0.4): 0.00851; smFRET histogram value ([3]; FRET bin 0.42): 0.00558; smFRET histogram value ([3]; FRET bin 0.44): 0.00425; smFRET histogram value ([3]; FRET bin 0.46): 0.00239; smFRET histogram value ([3]; FRET bin 0.48): 0.00285; smFRET histogram value ([3]; FRET bin 0.5): 0.00309; smFRET histogram value ([3]; FRET bin 0.52): 0.00461; smFRET histogram value ([3]; FRET bin 0.54): 0.00369; smFRET histogram value ([3]; FRET bin 0.56): 0.00265; smFRET histogram value ([3]; FRET bin 0.58): 0.00122; smFRET histogram value ([3]; FRET bin 0.6): 7.52E-04; smFRET histogram value ([3]; FRET bin 0.62): 8.08E-05; smFRET histogram value ([3]; FRET bin 0.64): 4.04E-05; smFRET histogram value ([3]; FRET bin 0.66): 1.92E-05; smFRET histogram value ([3]; FRET bin 0.68): 1.92E-05; smFRET histogram value ([3]; FRET bin 0.7): 6.75E-05; smFRET histogram value ([3]; FRET bin 0.72): 4.04E-05; smFRET histogram value ([3]; FRET bin 0.74): 7.95E-06; smFRET histogram value ([3]; FRET bin 0.76): 1.62E-04; smFRET histogram value ([3]; FRET bin 0.78): 4.04E-05; smFRET histogram value ([3]; FRET bin 0.8): 0; smFRET histogram value ([3]; FRET bin 0.82): 0; smFRET histogram value ([3]; FRET bin 0.84): 0; smFRET histogram value ([3]; FRET bin 0.86): 0; smFRET histogram value ([3]; FRET bin 0.88): 0; smFRET histogram value ([3]; FRET bin 0.9): 0; smFRET histogram value ([3]; FRET bin 0.92): 0; smFRET histogram value ([3]; FRET bin 0.94): 0; smFRET histogram value ([3]; FRET bin 0.96): 0; smFRET histogram value ([3]; FRET bin 0.98): 0; smFRET histogram value ([3]; FRET bin 1): 0; active state occupancy ([3]; 10 μM glutamate): ~ 95%; occupancy of activated low FRET state vs wild-type mGluR7 [4]: greater occupancy of the activated low FRET (~0.2) state
